Reference: patent US7435820B2, “Substituted tetrahydro-1H-pyrazolo [3,4-c]pyridines compositions comprising them, and use” (Aventis Pharma S.A., priority 2003, dated 2008)
Like-named read-outs stand apart in the source and are kept apart here.

Experiments:
human Tie2 = target: T1, human Tie2 (Homo sapiens, UniProt Q02763); assay: Tie2 kinase inhibition: phosphorylation of GST-PLC (SH2-SH3 fragments) by GST-Tie2, 33P-ATP flashplate; format: biochemical
T1 construct: human Tie2 corresponding to amino acids 776-1124 of the intracellular domain was generated by PCR; made in house; host or cells: baculovirus expression system (vector pFastBacGT)
T1 sequence (Q02763 776-1124): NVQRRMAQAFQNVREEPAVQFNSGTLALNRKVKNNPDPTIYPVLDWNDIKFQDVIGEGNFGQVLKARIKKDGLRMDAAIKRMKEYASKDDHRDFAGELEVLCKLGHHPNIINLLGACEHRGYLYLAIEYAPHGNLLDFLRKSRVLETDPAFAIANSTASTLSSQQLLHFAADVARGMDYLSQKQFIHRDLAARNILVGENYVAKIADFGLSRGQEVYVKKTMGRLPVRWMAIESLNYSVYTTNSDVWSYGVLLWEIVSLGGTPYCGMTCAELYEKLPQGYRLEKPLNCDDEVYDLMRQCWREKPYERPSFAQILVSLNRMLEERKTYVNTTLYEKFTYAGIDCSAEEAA
Protocol: The coding sequence of human Tie2 corresponding to amino acids 776-1124 of the intracellular domain was generated by PCR using the cDNA isolated from human placenta as model. This sequence was introduced into a baculovirus expression vector pFastBacGT in the form of a GST fusion protein.
The inhibitory effect of the molecules is determined in an assay for phosphorylation of PLC by Tie2 in the presence of GST-Tie2 purified to approximately 80% homogeneity. The substrate is made up of the SH2-SH3 fragments of PLC, the latter being expressed in the form of a GST fusion protein.
The kinase activity of Tie2 is measured in a 20 mM MOPS buffer, pH 7.2, containing 10 mM MgCl2, 10 mM MnCl2, 1 mM DTT and 10 mM of glycerophosphate. A reaction mixture made up of 70 μl of kinase buffer containing 100 ng of GST-Tie2 enzyme per well is placed in a flashplate 96-well plate kept on ice. 10 μl of the molecule to be tested, diluted in DMSO, at a concentration of at most 10% are then added. For a given concentration, each measurement is carried out in quadruplicate. The reaction is initiated by adding 20 μl of solution containing 2 μg of GST-PLC, 2 μM of cold ATP and 1 μCi of ^33P[ATP]. After incubation for 1 hour at 37° C., the reaction is stopped by adding 1 volume (100 μl) of 200 mM EDTA. After removal of the incubation buffer, the wells are washed three times with 300 μl of PBS. The radioactivity is measured on a Wallac MicroBeta 1450.
The inhibition of the Tie2 activity is calculated and expressed as percentage inhibition with respect to the control activity determined in the absence of compound.

human KDR enzyme = target: T2, human KDR enzyme (Homo sapiens, UniProt P35968); assay: KDR kinase inhibition: phosphorylation of PLCγ SH2-SH3 substrate by KDR enzyme, 33P-ATP scintillation plate; format: biochemical
T2 construct: The cytoplasmic domain of the human KDR enzyme was cloned in GST fusion form; GST; made in house; host or cells: SF21 insect cells (baculovirus, pFastBac)
T2 sequence (P35968 786-1356 limits assumed): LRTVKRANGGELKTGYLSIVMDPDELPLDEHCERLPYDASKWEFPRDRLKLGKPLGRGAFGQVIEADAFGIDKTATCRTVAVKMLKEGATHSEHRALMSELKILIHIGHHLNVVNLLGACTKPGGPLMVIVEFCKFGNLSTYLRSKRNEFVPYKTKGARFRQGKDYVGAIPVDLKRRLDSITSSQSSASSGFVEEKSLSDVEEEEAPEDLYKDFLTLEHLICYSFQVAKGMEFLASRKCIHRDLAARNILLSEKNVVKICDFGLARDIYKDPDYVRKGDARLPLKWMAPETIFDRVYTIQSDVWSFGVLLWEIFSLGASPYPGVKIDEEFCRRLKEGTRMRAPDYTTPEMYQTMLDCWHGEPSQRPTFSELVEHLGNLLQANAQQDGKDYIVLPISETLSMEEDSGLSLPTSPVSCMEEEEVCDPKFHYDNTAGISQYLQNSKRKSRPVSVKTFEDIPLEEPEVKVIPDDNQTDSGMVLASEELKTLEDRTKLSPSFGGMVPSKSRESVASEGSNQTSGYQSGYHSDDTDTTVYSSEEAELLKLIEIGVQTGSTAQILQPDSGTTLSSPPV
Protocol: The inhibitory effect of the compounds is determined in an assay for phosphorylation of substrate by the KDR enzyme in vitro using a scintillation technique (96-well plate, NEN).
The cytoplasmic domain of the human KDR enzyme was cloned in GST fusion form into the baculovirus expression vector pFastBac. The protein was expressed in SF21 cells and purified to approximately 60% homogeneity. The KDR kinase activity is measured in 20 mM MOPS, 10 mM MgCl2, 10 mM MnCl2, 1 mM DTT, 2.5 mM EGTA, 10 mM b-glycerophosphate, pH=7.2, in the presence of 10 mM MgCl2, 100 μM Na3VO4 and 1 mM NaF. 10 μl of the compound are added to 70 μl of kinase buffer containing 100 ng of KDR enzyme at 4° C. The reaction is initiated by adding 20 μl of solution containing 2 μg of substrate (SH2-SH3 fragment of PLCγ expressed in the form of an GST fusion protein), 2 μCi γ ^33P[ATP] and 2 μM cold ATP. After incubation for 1 hour at 37° C., the reaction is stopped by adding 1 volume (100 μl) of 200 mM EDTA. The incubation buffer is removed and the wells are washed three times with 300 μl of PBS. The radioactivity is measured in each well using a Top Count NXT (Packard) radioactivity counter.
The background noise is determined by measuring the radioactivity in four different wells containing the radioactive ATP and the substrate alone.
A total activity control is measured in four different wells containing all the reagents (γ^33P-[ATP], KDR and PLC-γ substrate) but in the absence of compound.
The inhibition of the KDR activity with the compound of the invention is expressed as percentage inhibition of the control activity determined in the absence of compound.
The compound SU5614 (Calbiochem) (1 μM) is included in each plate as inhibition control.

[1] = Assay 1, read-out: Tie2 % Inhib at 10 μM (FRX) Assay 1
[2] = Assay 2, read-out: Tie2 % Inhib at 10 μM (FRX) Assay 2
[3] = Assay 1, read-out: KDR % Inhib at 10 μM Assay 1
[4] = Assay 2, read-out: KDR % Inhib at 10 μM Assay 2

Compound | inhibition at 10 µM (human Tie2; read-out: Tie2 % Inhib. 10 μM) | inhibition at 10 µM (human KDR enzyme; read-out: KDR % Inhib. 10 μM) | also measured
Cc1cc2nc(-c3[nH]nc4c3CCN(C(=O)Nc3ccccc3C)C4)[nH]c2cc1C [Chemistry 68] | 19.1% | 19.5% | –
CCCCC(=O)N1CCc2c(n[nH]c2-c2nc3cc(C)c(C)cc3[nH]2)C1 [Chemistry 56] | 92.5% | 46.6% | –
Cc1cc2nc(-c3[nH]nc4c3CCN(C(=O)CN(C)C)C4)[nH]c2cc1C [Chemistry 55] | 65.4% | 15.9% | –
Cc1cc2nc(-c3[nH]nc4c3CCN(S(=O)(=O)c3cccc(Cl)c3Cl)C4)[nH]c2cc1C [Chemistry 25] | 89.1% | 31.9% | –
CCS(=O)(=O)N1CCc2c(n[nH]c2-c2nc3cc(C)c(C)cc3[nH]2)C1 [Chemistry 28] | 78.5% | 16.5% | –
Cc1cc2nc(-c3[nH]nc4c3CCN(C(=O)c3cccc(Cl)c3Cl)C4)[nH]c2cc1C [Chemistry 42] | 97.4% | 52.6% | –
Cc1cc2nc(-c3[nH]nc4c3CCN(CCC(C)C)C4)[nH]c2cc1C [Chemistry 17] | 50.7% | -2.9% | –
Cc1cc2nc(-c3[nH]nc4c3CCN(C(=O)c3ccccc3CCc3ccccc3)C4)[nH]c2cc1C [Example P-31378-112-7] | – | – | inhibition at 10 µM (human Tie2; [1]): 92.7%; inhibition at 10 µM (human Tie2; [2]): 92%; inhibition at 10 µM (human KDR enzyme; [3]): 68.6%; inhibition at 10 µM (human KDR enzyme; [4]): 64.3%
Cc1ccc(S(=O)(=O)N2CCc3c(n[nH]c3-c3nc4cc(C)c(C)cc4[nH]3)C2)cc1 [Chemistry 35] | 88.8% | 27.4% | –
COc1ccc(S(=O)(=O)Nc2ccc(N3CCc4c(n[nH]c4-c4nc5cc(C)c(C)cc5[nH]4)C3)nc2)cc1 | 99% | – | –
COc1ccc(S(=O)(=O)N2CCc3c(n[nH]c3-c3nc4cc(C)c(C)cc4[nH]3)C2)cc1 [Chemistry 34] | 84.7% | 18.1% | –
Cc1cc2nc(-c3[nH]nc4c3CCN(S(=O)(=O)c3ccccc3)C4)[nH]c2cc1C [Chemistry 23] | 92.5% | 48% | –
CCCN1CCc2c(n[nH]c2-c2nc3cc(C)c(C)cc3[nH]2)C1 [Chemistry 18] | 55% | -3.7% | –
Cc1cc2nc(-c3[nH]nc4c3CCN(S(=O)(=O)c3ccccc3C)C4)[nH]c2cc1C [Chemistry 36] | 90.8% | 49.4% | –
Cc1cc2nc(-c3[nH]nc4c3CCN(S(C)(=O)=O)C4)[nH]c2cc1C [Chemistry 3] | – | 78.1% | –
Cc1cccc(S(=O)(=O)N2CCc3c(n[nH]c3-c3nc4cc(C)c(C)cc4[nH]3)C2)c1 [Chemistry 37] | 88.3% | 41.2% | –
Cc1cc2nc(-c3[nH]nc4c3CCN(C(=O)c3cccnc3)C4)[nH]c2cc1C [Chemistry 4] | – | 25.4% | –
Cc1cc2nc(-c3[nH]nc4c3CCN(C(=O)c3ccc(S(C)(=O)=O)cc3)C4)[nH]c2cc1C [Chemistry 58] | 82.3% | 27.9% | –

Compound | inhibition at 10 µM (human Tie2; read-out: Tie2 % Inhib. 10 μM) | inhibition at 10 µM (human KDR enzyme; read-out: KDR % Inhib. 10 μM) | also measured
CCCCNC(=O)N1CCc2c(n[nH]c2-c2nc3cc(C)c(C)cc3[nH]2)C1 [Chemistry 64] | 38.5% | 18% | –
Cc1cc2nc(-c3[nH]nc4c3CCN(S(=O)(=O)c3ccc(Cl)cc3)C4)[nH]c2cc1C [Chemistry 26] | 89.1% | 27.8% | –
Cc1cc2nc(-c3[nH]nc4c3CCN(C(=O)c3cccs3)C4)[nH]c2cc1C [Chemistry 57] | 94.6% | 75.2% | –
Cc1cc2nc(-c3[nH]nc4c3CCN(Cc3ccco3)C4)[nH]c2cc1C [Chemistry 11] | 66.1% | 70.3% | –
Cc1cc2nc(-c3[nH]nc4c3CCN(C(=O)C(C)C)C4)[nH]c2cc1C [Chemistry 40] | 83.4% | 14.4% | –
Cc1cc2nc(-c3[nH]nc4c3CCN(CC(C)(C)C)C4)[nH]c2cc1C [Chemistry 15] | 69.4% | 39.3% | –
Cc1cc2nc(-c3[nH]nc4c3CCN(C(=O)c3ccccc3NCc3ccco3)C4)[nH]c2cc1C [Example P-31378-112-16] | – | – | inhibition at 10 µM (human Tie2; [1]): 88.7%; inhibition at 10 µM (human Tie2; [2]): 88.3%; inhibition at 10 µM (human KDR enzyme; [3]): 90.2%; inhibition at 10 µM (human KDR enzyme; [4]): 89.1%
Cc1cc2nc(-c3[nH]nc4c3CCN(C(=O)NCc3ccccc3)C4)[nH]c2cc1C [Chemistry 60] | 64.8% | 33.5% | –
CCN1CCc2c(n[nH]c2-c2nc3cc(C)c(C)cc3[nH]2)C1 [Chemistry 16] | 36.4% | -5.75% | –
Cc1cc2nc(-c3[nH]nc4c3CCN(C(=O)c3ccccc3NC(=O)c3ccc(Cl)cc3)C4)[nH]c2cc1C [Example P-31378-112-15] | – | – | inhibition at 10 µM (human Tie2; [1]): 80.1%; inhibition at 10 µM (human Tie2; [2]): 83.8%; inhibition at 10 µM (human KDR enzyme; [3]): 75.5%; inhibition at 10 µM (human KDR enzyme; [4]): 77.4%
Cc1cc2nc(-c3[nH]nc4c3CCN(C(=O)Nc3ccccc3)C4)[nH]c2cc1C [Chemistry 59] | 33.2% | 17.6% | –
Cc1cc2nc(-c3[nH]nc4c3CCN(C(=O)c3ccco3)C4)[nH]c2cc1C [Chemistry 53] | 92.7% | 74.5% | –
Cc1cc2nc(-c3[nH]nc4c3CCN(C(=O)c3ccccc3Nc3cccc(C(F)(F)F)c3)C4)[nH]c2cc1C [Example P-31378-112-3] | – | – | Tie2 % Inhib at 10 μM (FRX) Assay 1 (human Tie2; Assay 1, 10 µM): 78.7%; Tie2 % Inhib at 10 μM (FRX) Assay 2 (human Tie2; Assay 2, 10 µM): 79.1%; KDR % Inhib at 10 μM Assay 1 (human KDR enzyme; Assay 1): 59.0%; KDR % Inhib at 10 μM Assay 2 (human KDR enzyme; Assay 2): 56.5%
Cc1cc2nc(-c3[nH]nc4c3CCN(c3ccc(NS(=O)(=O)c5cccs5)cn3)C4)[nH]c2cc1C | 100% | – | –
Cc1cc2nc(-c3[nH]nc4c3CCN(Cc3cccc(Cl)c3)C4)[nH]c2cc1C [Chemistry 5] | – | 88.8% | –
Cc1cc2nc(-c3[nH]nc4c3CCN(c3ccc(NS(=O)(=O)c5ccccc5Cl)cn3)C4)[nH]c2cc1C | 100% | – | –
COc1cc(C)ccc1S(=O)(=O)Nc1ccc(N2CCc3c(n[nH]c3-c3nc4cc(C)c(C)cc4[nH]3)C2)nc1 | 98% | – | –
Cc1cc2nc(-c3[nH]nc4c3CCN(C(=O)NCCc3ccccc3)C4)[nH]c2cc1C [Chemistry 2] | – | 77.2% | –
